According to PMC11672152 (JACS Au, 2024):

How the values were obtained:
[1] = In vitro 1O2-scavenging capacity; format: biochemical; details: amino acid 80 μM; normalized to Cys; Figure S18
[2] = tested on: •OH in chloroplasts of N. benthamiana leaf discs; assay: In vivo •OH level in chloroplasts of leaf discs; format: cell-based, Nicotiana benthamiana; details: MV 0.35 μM, HPF 5 μM; MV(+) vs MV(−); n = 8; Figure S22
[3] = tested on: ^1O2 in chloroplasts of N. benthamiana leaf discs; assay: In vivo 1O2 level in chloroplasts of leaf discs; format: cell-based, Nicotiana benthamiana; details: MV 0.35 μM, SOSG 10 μM; MV(+) vs MV(−); n = 8; Figure S22
[4] = In vitro •OH-scavenging capacity; format: biochemical; details: amino acid 80 μM; Cys, Met and Trp compared, normalized to Cys; Figure S18

Compound: CSCC[C@H](N)C(=O)O [Met, methionine]
- 1O2-scavenging capacity of amino acids compared with Trp [1]: more effective scavengers for ^1O2 than Trp

Compound: C[n+]1ccc(-c2cc[n+](C)cc2)cc1 [MV, methyl viologen]
- effect on cellular levels of •OH [2]: elevated the cellular levels of •OH
- effect on cellular levels of 1O2 [3]: did not affect those of ^1O2

Compound: N[C@@H](Cc1c[nH]c2ccccc12)C(=O)O [Trp, tryptophan]
- •OH-scavenging capacity of amino acids [4]: highest •OH-scavenging capacity

Compound: N[C@@H](CS)C(=O)O [Cys, cysteine]
- 1O2-scavenging capacity of amino acids compared with Trp [1]: more effective scavengers for ^1O2 than Trp
